# Results reported in ChEMBL document CHEMBL1156193, “Discovery of a long-acting, peripherally selective inhibitor of catechol-O-methyltransferase” (2010).
# Experiments:
# [1] = Cytotoxicity against mouse Neuro2a cells assessed as cell viability at 30 uM after 24 hrs; type: functional; conditions: N2a, read-out: Activity
# Mus musculus [2] = assay: Inhibition of COMT in NMRI mouse liver homogenates assessed as metanephrine formation at 3 mg/kg, po measured after 3 hrs relative to control; values are per cent of control
# [3] = biological target: T1, Catechol O-methyltransferase (Rattus norvegicus) (UniProt P22734); assay: Inhibition of COMT in rat liver homogenates assessed as metanephrine formation at 3 uM relative to control; values are per cent of control
# T1 sequence (whole entry): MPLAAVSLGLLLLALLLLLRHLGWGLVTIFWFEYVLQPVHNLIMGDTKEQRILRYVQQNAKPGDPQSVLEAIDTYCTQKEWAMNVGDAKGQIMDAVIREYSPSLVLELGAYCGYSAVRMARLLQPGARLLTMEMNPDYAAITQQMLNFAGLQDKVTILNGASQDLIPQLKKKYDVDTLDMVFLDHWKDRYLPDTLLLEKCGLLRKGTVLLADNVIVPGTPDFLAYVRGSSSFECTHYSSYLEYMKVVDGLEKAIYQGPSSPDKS
# Rattus norvegicus [4] = assay: Inhibition of COMT in Wistar rat liver homogenates assessed as metanephrine formation at 3 mg/kg, po measured after 3 hrs relative to control; values are per cent of control
# Mus musculus [5] = assay: Inhibition of COMT in NMRI mouse liver homogenates assessed as metanephrine formation at 30 mg/kg, po measured after 6 hrs relative to control; values are per cent of control
# [6] = biological target: T1, Catechol O-methyltransferase (Rattus norvegicus); assay: Inhibition of COMT in rat liver homogenates assessed as metanephrine formation at 30 uM relative to control; values are per cent of control
# Rattus norvegicus [7] = assay: Inhibition of COMT in Wistar rat brain homogenates assessed as metanephrine formation at 3 mg/kg, po measured after 3 hrs relative to control; values are per cent of control
compound,measurement,setting,value
O=[N+]([O-])c1cc(-c2nc(N3CCN(c4ccccn4)CC3)no2)cc(O)c1O,viability at 30 µM,[1],24.6%
same,"level, % of control at 3 mg/kg",Mus musculus [2],32.2%
Cc1[nH]nc(-c2ccc(O)c(O)c2O)c1-c1ccc(Cl)cc1,residual activity,[3],15.6%
O=[N+]([O-])c1cc(-c2ccnn2-c2cccc(Cl)c2)cc(O)c1O,residual activity,[3],0%
Cc1c(-c2noc(-c3cc(O)c(O)c([N+](=O)[O-])c3)n2)ccc(C(F)(F)F)[n+]1[O-],viability at 30 µM,[1],62.2%
same,"level, % of control at 3 mg/kg",Rattus norvegicus [4],13.9%
Cc1ccc(-c2noc(-c3cc(O)c(O)c([N+](=O)[O-])c3)n2)c(Cl)n1,viability at 30 µM,[1],53.1%
O=[N+]([O-])c1cc(-c2nc(-c3ccc[n+]([O-])c3Cl)no2)cc(O)c1O,viability at 30 µM,[1],93.7%
same,"level, % of control at 3 mg/kg",Rattus norvegicus [4],71.6%
N#Cc1ccc(-n2nccc2-c2cc(O)c(O)c([N+](=O)[O-])c2)cc1,residual activity,[3],0.3%
same,"level, % of control at 30 mg/kg",Mus musculus [5],61.1%
O=[N+]([O-])c1cc(-c2nc(-c3ccc[n+]([O-])c3C(F)(F)F)no2)cc(O)c1O,viability at 30 µM,[1],96.4%
same,"level, % of control at 3 mg/kg",Rattus norvegicus [4],5.5%
Cc1c(C)c(C)[n+]([O-])c(Cl)c1-c1noc(-c2cc(O)c(O)c([N+](=O)[O-])c2)n1,viability at 30 µM,[1],95.1%
same,"level, % of control at 3 mg/kg",Rattus norvegicus [4],7.9%
Cc1ccc(-n2nccc2-c2ccc(O)c(O)c2)cc1,residual activity,[6],41.2%
O=[N+]([O-])c1cc(-c2nc(-c3cnccc3C(F)(F)F)no2)cc(O)c1O,viability at 30 µM,[1],14.7%
NC(=O)c1ccc(-c2noc(-c3cc(O)c(O)c([N+](=O)[O-])c3)n2)cc1,viability at 30 µM,[1],91.2%
same,"level, % of control at 3 mg/kg",Mus musculus [2],79.2%
CN1CCN(C(=O)c2ccc(-c3noc(-c4cc(O)c(O)c([N+](=O)[O-])c4)n3)cc2)CC1,viability at 30 µM,[1],90.7%
same,"level, % of control at 3 mg/kg",Mus musculus [2],74%
O=[N+]([O-])c1cc(-c2nc(-c3ccc(Br)cc3)no2)cc(O)c1O,viability at 30 µM,[1],12.2%
same,"level, % of control at 3 mg/kg",Mus musculus [2],12.7%
O=[N+]([O-])c1cc(-c2nc(-c3cnccn3)no2)cc(O)c1O,viability at 30 µM,[1],60.5%
O=[N+]([O-])c1cc(-c2nc(-c3ccc(C(F)(F)F)[n+]([O-])c3)no2)cc(O)c1O,viability at 30 µM,[1],87%
same,"level, % of control at 3 mg/kg",Rattus norvegicus [4],34.4%
Cc1cc(C)[n+]([O-])c(Cl)c1-c1noc(-c2cc(O)c(O)c([N+](=O)[O-])c2)n1,viability at 30 µM,[1],92.3%
same,"level, % of control at 3 mg/kg",Rattus norvegicus [4],13.9%
O=[N+]([O-])c1cc(-c2ccnc(-c3ccccc3)n2)cc(O)c1O,"level, % of control at 30 mg/kg",Mus musculus [5],44.8%
O=[N+]([O-])c1cc(-c2ccn[nH]2)cc(O)c1O,residual activity,[3],0%
Cc1nc(-c2cc(O)c(O)c([N+](=O)[O-])c2)c(-c2ccccc2)o1,"level, % of control at 30 mg/kg",Mus musculus [5],84.1%
Cc1cc(C(F)(F)F)c(-c2noc(-c3cc(O)c(O)c([N+](=O)[O-])c3)n2)c(C)[n+]1[O-],viability at 30 µM,[1],37.2%
same,"level, % of control at 3 mg/kg",Rattus norvegicus [4],1.3%
Cc1ccc(-c2noc(-c3cc(O)c(O)c([N+](=O)[O-])c3)n2)c(Br)[n+]1[O-],viability at 30 µM,[1],76.3%
same,"level, % of control at 3 mg/kg",Rattus norvegicus [4],33.7%
Cc1c(-c2noc(-c3cc(O)c(O)c([N+](=O)[O-])c3)n2)c(C(F)(F)F)cc(-c2ccccc2)[n+]1[O-],viability at 30 µM,[1],26.6%
same,"level, % of control at 3 mg/kg",Rattus norvegicus [4],24.3%
O=[N+]([O-])c1cc(-c2nc(N3CCOCC3)no2)cc(O)c1O,viability at 30 µM,[1],67.5%
same,"level, % of control at 3 mg/kg",Mus musculus [2],45.8%
Nc1nc(-c2cc(O)c(O)c([N+](=O)[O-])c2)c(-c2ccccc2)s1,"level, % of control at 30 mg/kg",Mus musculus [5],77.4%
Oc1cc(-c2ccnn2-c2ccccc2)cc(O)c1O,residual activity,[6],0.8%
CC(=O)N1CCN(c2noc(-c3cc(O)c(O)c([N+](=O)[O-])c3)n2)CC1,viability at 30 µM,[1],104%
same,"level, % of control at 3 mg/kg",Mus musculus [2],68.2%
O=[N+]([O-])c1cc(-c2nc(-c3ccccc3)no2)cc(O)c1O,viability at 30 µM,[1],43.1%
same,"level, % of control at 3 mg/kg",Rattus norvegicus [7],71.7%
same,"level, % of control at 3 mg/kg",Rattus norvegicus [4],20.6%
same,"level, % of control at 3 mg/kg",Mus musculus [2],20.6%
same,"level, % of control at 30 mg/kg",Mus musculus [5],7%
O=[N+]([O-])c1cc(-c2nc(-c3cccnc3)no2)cc(O)c1O,viability at 30 µM,[1],26.7%
O=[N+]([O-])c1cc(-c2noc(-c3ccccc3)n2)cc(O)c1O,"level, % of control at 3 mg/kg",Rattus norvegicus [7],55.6%
same,"level, % of control at 3 mg/kg",Rattus norvegicus [4],51.9%
same,"level, % of control at 30 mg/kg",Mus musculus [5],24.4%
O=[N+]([O-])c1cc(-c2ccnn2-c2ccccc2)cc(O)c1O,residual activity,[3],0%
same,"level, % of control at 30 mg/kg",Mus musculus [5],60.8%
CN1CCN(c2noc(-c3cc(O)c(O)c([N+](=O)[O-])c3)n2)CC1,viability at 30 µM,[1],90.2%
same,"level, % of control at 3 mg/kg",Mus musculus [2],56.8%
Cc1ccc(-c2noc(-c3cc(O)c(O)c([N+](=O)[O-])c3)n2)c(N2CCOCC2)n1,viability at 30 µM,[1],43.8%
Cc1ccc(-c2noc(-c3cc(O)c(O)c([N+](=O)[O-])c3)n2)c(Cl)[n+]1[O-],viability at 30 µM,[1],100%
same,"level, % of control at 3 mg/kg",Rattus norvegicus [4],31.6%
O=[N+]([O-])c1cc(-c2cncn2-c2ccccc2)cc(O)c1O,"level, % of control at 30 mg/kg",Mus musculus [5],109%
O=[N+]([O-])c1cc(-c2nc(-c3cccs3)no2)cc(O)c1O,viability at 30 µM,[1],19.3%
same,"level, % of control at 3 mg/kg",Mus musculus [2],29.6%
O=[N+]([O-])c1cc(-c2nc(-c3ccc(Cl)c(Cl)c3)no2)cc(O)c1O,viability at 30 µM,[1],37.7%
same,"level, % of control at 3 mg/kg",Mus musculus [2],8.8%
O=[N+]([O-])c1cc(-c2nc(-c3ccc[n+]([O-])c3)no2)cc(O)c1O,viability at 30 µM,[1],93.8%
same,"level, % of control at 3 mg/kg",Rattus norvegicus [4],77%
O=[N+]([O-])c1cc(-c2nc(-c3c[n+]([O-])ccc3C(F)(F)F)no2)cc(O)c1O,viability at 30 µM,[1],93.4%
same,"level, % of control at 3 mg/kg",Rattus norvegicus [4],23.6%
O=[N+]([O-])c1cc(-c2nc(-c3ccncc3)no2)cc(O)c1O,viability at 30 µM,[1],27.3%
O=[N+]([O-])c1cc(-c2nc(-c3ccc(F)cc3)no2)cc(O)c1O,viability at 30 µM,[1],29.5%
same,"level, % of control at 3 mg/kg",Mus musculus [2],12.7%
Oc1ccc(-c2ccnn2-c2ccc(C(F)(F)F)cc2)c(F)c1O,residual activity,[6],32.3%
Cc1cc(-c2noc(-c3cc(O)c(O)c([N+](=O)[O-])c3)n2)on1,viability at 30 µM,[1],27.6%
Cc1ccc(-n2nccc2-c2cc(O)c(O)c([N+](=O)[O-])c2)cc1,residual activity,[3],0%
Cc1nc(-c2noc(-c3cc(O)c(O)c([N+](=O)[O-])c3)n2)cs1,viability at 30 µM,[1],58.7%
same,"level, % of control at 3 mg/kg",Mus musculus [2],22.9%
Cc1ccc(C(=O)n2ncc(-c3ccccc3)c2-c2cc(O)c(O)c([N+](=O)[O-])c2)cc1,residual activity,[3],2.8%
same,"level, % of control at 30 mg/kg",Mus musculus [5],89.3%
Cn1nccc1-c1cc(O)c(O)c([N+](=O)[O-])c1,residual activity,[3],1.1%
O=[N+]([O-])c1cc(-c2nc(-c3ccccn3)no2)cc(O)c1O,viability at 30 µM,[1],70.5%
O=C(Cc1ccccc1)c1cc(O)c(O)c([N+](=O)[O-])c1 [NEBICAPONE],"level, % of control at 30 mg/kg",Mus musculus [5],85.7%
Oc1ccc(-c2ccnn2-c2ccccc2)c(O)c1O,residual activity,[6],26.8%
O=[N+]([O-])c1cc(-c2nnc(-c3ccccc3)o2)cc(O)c1O,"level, % of control at 3 mg/kg",Rattus norvegicus [7],87.9%
same,"level, % of control at 3 mg/kg",Rattus norvegicus [4],67.8%
same,"level, % of control at 30 mg/kg",Mus musculus [5],47.3%
O=C(O)c1cc(-c2ccnn2-c2cccc(Cl)c2)cc(O)c1O,residual activity,[6],24.1%
O=[N+]([O-])c1cc(-c2c(-c3ccccc3)cnn2-c2cccc(Cl)c2)cc(O)c1O,residual activity,[3],68.6%
O=[N+]([O-])c1cc(-c2nc(-c3ccnc(F)c3)no2)cc(O)c1O,viability at 30 µM,[1],25%
